# In US20150141381A1, “TETRACYCLINE COMPOUNDS HAVING TARGET THERAPEUTIC ACTIVITIES” (Paratek Pharmaceuticals, Inc., priority 2001, published 2015):
# Like-named read-outs stand apart in the source and are kept apart here.
# How the values were obtained:
# S. aureus RN450 = experiment: In Vitro Anti-Bacterial Activity Assay (MIC), gram positive; assay type: cell-based; settings: for MIC: Staphylococcus aureus, RN450, 18 h
# E. coli mL308 225 = experiment: In Vitro Anti-Bacterial Activity Assay (MIC), gram negative; assay type: cell-based; settings: for MIC: Escherichia coli, ML308225, 18 h
# [1] = MIC class, Table 3 (Continued), read-out: Gram+ activity
# [2] = MIC class, Table 3 (Continued), read-out: Gram− activity
# [3] = gram positive bacteria, read-out: Antibiotic Activity Gram + (MIC)
# [4] = gram negative bacteria, read-out: Antibiotic Activity Gram − (MIC)
# [5] = MIC class, Table 3, read-out: Antibiotic Activity Gram +
# [6] = MIC class, Table 3, read-out: Antibiotic Activity Gram −
SMILES,MIC (S. aureus RN450; [3]) [µg/mL],MIC (E. coli mL308 225; [4]) [µg/mL],MIC (S. aureus RN450; [5]) [µg/mL],MIC (E. coli mL308 225; [6]) [µg/mL],further results
COc1ccc(-c2ccc(O)c3c2C[C@H]2C[C@H]4[C@H](N(C)C)C(O)=C(C(N)=O)C(=O)[C@@]4(O)C(O)=C2C3=O)cc1 [drawing 3310],,,,,MIC (S. aureus RN450; [1]): < 4 µg/mL; MIC (E. coli mL308 225; [2]): < 4 µg/mL
CO/N=C/c1ccc(OC)c(-c2ccc(O)c3c2C[C@H]2C[C@H]4[C@H](N(C)C)C(O)=C(C(N)=O)C(=O)[C@@]4(O)C(O)=C2C3=O)c1,< 4,< 4,,,
CN(C)c1cc(NCc2ccc([N+](=O)[O-])o2)c(O)c2c1C[C@H]1C[C@H]3[C@H](N(C)C)C(O)=C(C(N)=O)C(=O)[C@@]3(O)C(O)=C1C2=O,< 4,> 4,,,
COCc1cncc(-c2ccc(O)c3c2C[C@H]2C[C@H]4[C@H](N(C)C)C(O)=C(C(N)=O)C(=O)[C@@]4(O)C(O)=C2C3=O)c1,< 4,< 4,,,
CN(C)Cc1ccc(-c2ccc(O)c3c2C[C@H]2C[C@H]4[C@@H](N(C)C)C(O)=C(C(N)=O)C(=O)[C@@]4(O)C(O)=C2C3=O)c2ccccc12 [K],,,< 4,< 4,
CN(C)c1cc(CN2CCCCC2)c(O)c2c1C[C@H]1C[C@H]3C(N(C)C)C(O)=C(C(N)=O)C(=O)[C@@]3(O)C(O)=C1C2=O (some centres unmarked),,,,,MIC (S. aureus RN450; [1]): < 4 µg/mL; MIC (E. coli mL308 225; [2]): > 4 µg/mL
Cc1cc(CNCc2cc(N(C)C)c3c(c2O)C(=O)C2=C(O)[C@]4(O)C(=O)C(C(N)=O)=C(O)[C@@H](N(C)C)[C@@H]4C[C@@H]2C3)c(C(F)(F)F)o1,< 4,< 4,,,
CN(C)c1ccc(O)c2c1C[C@H]1C[C@H]3[C@H]([N+](C)(C)C)C(O)=C(C(N)=O)C(=O)[C@@]3(O)C(O)=C1C2=O,< 4,> 4,,,
CN(C)[C@@H]1C(O)=C(C(N)=O)C(=O)[C@@]2(O)C(O)=C3C(=O)c4c(O)ccc(-c5ccc(CN6CCCC6)cc5)c4C[C@H]3C[C@@H]12 [JZ],,,< 4,< 4,
CN(C)[C@H]1C(O)=C(C(N)=O)C(=O)[C@@]2(O)C(O)=C3C(=O)c4c(O)ccc(-c5cccc(N)c5)c4C[C@H]3C[C@@H]12 [AM],,,< 4,< 4,
O=c1cc(-c2ccc(F)cc2)oc2ccccc12,< 4,< 4,,,
CN(C)[C@@H]1C(O)=C(C(N)=O)C(=O)[C@@]2(O)C(O)=C3C(=O)c4c(O)ccc(C=CC#N)c4C[C@H]3C[C@@H]12 [NO],,,< 4,< 4,
CCC(=O)Nc1ccc2c(c1O)C(=O)C1=C(O)[C@]3(O)C(=O)C(C(N)=O)=C(O)[C@@H](N(C)C)[C@@H]3C[C@@H]1C2,< 4,< 4,,,
CCc1cc(CNC(=O)c2cccnc2)c(O)c2c1C[C@H]1C[C@H]3[C@H](N(C)C)C(O)=C(C(N)=O)C(=O)[C@@]3(O)C(O)=C1C2=O [CS],,,> 4,> 4,
CN(C)c1cc(CC2=COc3ccccc3C2)c(O)c2c1C[C@H]1C[C@H]3[C@H](N(C)C)C(O)=C(C(N)=O)C(=O)[C@@]3(O)C(O)=C1C2=O,< 4,> 4,,,
CN(C)c1ccc(-c2ccc(O)c3c2C[C@H]2C[C@H]4[C@H](N(C)C)C(O)=C(C(N)=O)C(=O)[C@@]4(O)C(O)=C2C3=O)cc1,,,,,MIC (S. aureus RN450; [1]): < 4 µg/mL; MIC (E. coli mL308 225; [2]): < 4 µg/mL
CN(C)[C@@H]1C(O)=C(C(N)=O)C(=O)[C@@]2(O)C(O)=C3C(=O)c4c(O)ccc(-c5ccc(NC(=O)OCCF)cc5)c4C[C@H]3C[C@@H]12,< 4,> 4,,,
CCCc1cc(N(C)C)c2c(c1O)C(=O)C1=C(O)[C@]3(O)C(=O)C(C(N)=O)=C(O)[C@@H](N(C)C)[C@@H]3C[C@@H]1C2,< 4,> 4,,,
CN(C)[C@@H]1C(O)=C(C(N)=O)C(=O)[C@@]2(O)C(O)=C3C(=O)c4c(O)c(CS(C)(=O)=O)cc(I)c4C[C@H]3C[C@@H]12,< 4,> 4,,,
COC(=O)c1cc(N(C)C)c2c(c1O)C(=O)C1=C(O)[C@]3(O)C(=O)C(C(N)=O)=C(O)C(N(C)C)[C@@H]3C[C@@H]1C2 (some centres unmarked) [MO],,,> 4,> 4,
COc1ccc(CNCC(C)C)cc1-c1ccc(O)c2c1C[C@H]1C[C@H]3[C@H](N(C)C)C(O)=C(C(N)=O)C(=O)[C@@]3(O)C(O)=C1C2=O [EG],,,< 4,< 4,
CN(C)[C@@H]1C(O)=C(C(N)=O)C(=O)[C@@]2(O)C(O)=C3C(=O)c4c(O)ccc(CNC5CCNCC5)c4C[C@H]3C[C@@H]12 [LD],,,> 4,> 4,
CN(C)[C@@H]1C(O)=C(C(N)=O)C(=O)[C@@]2(O)C(O)=C3C(=O)c4c(O)ccc(CNCc5ccc(F)cc5)c4C[C@H]3C[C@@H]12,< 4,< 4,,,

SMILES,MIC (S. aureus RN450; [3]) [µg/mL],MIC (E. coli mL308 225; [4]) [µg/mL],MIC (S. aureus RN450; [5]) [µg/mL],MIC (E. coli mL308 225; [6]) [µg/mL],further results
CNCC#Cc1ccc(O)c2c1C[C@H]1C[C@H]3[C@H](N(C)C)C(O)=C(C(N)=O)C(=O)[C@@]3(O)C(O)=C1C2=O [KR],,,< 4,< 4,
COC(=O)C#Cc1cc(N(C)C)c2c(c1O)C(=O)C1=C(O)[C@]3(O)C(=O)C(C(N)=O)=C(O)C(N(C)C)[C@@H]3C[C@@H]1C2 (some centres unmarked) [CY],,,< 4,> 4,
CN(C)[C@@H]1C(O)=C(C(N)=O)C(=O)[C@@]2(O)C(O)=C3C(=O)c4c(O)ccc(-c5cc6ccccc6o5)c4C[C@H]3C[C@@H]12 [drawing 3311],,,,,MIC (S. aureus RN450; [1]): < 4 µg/mL; MIC (E. coli mL308 225; [2]): < 4 µg/mL
CC(C)CNCc1cc(N(C)C)c2c(c1O)C(=O)C1=C(O)[C@]3(O)C(=O)C(C(N)=O)=C(O)[C@@H](N(C)C)[C@@H]3C[C@@H]1C2 [drawing 3475],,,,,Antibiotic Activity Gram + (MIC) (S. aureus RN450; gram positive bacteria): * (compounds with an MIC of greater than 4 μg/ml are indicated with *); Antibiotic Activity Gram − (MIC) (E. coli mL308 225; gram negative bacteria): * (compounds with an MIC of greater than 4 μg/ml are indicated with *)
COCCOC(=O)NCc1cc(N(C)C)c2c(c1O)C(=O)C1=C(O)[C@]3(O)C(=O)C(C(N)=O)=C(O)[C@@H](N(C)C)[C@@H]3C[C@@H]1C2,< 4,> 4,,,
CC(C)ONC(C)c1ccc(O)c2c1C[C@H]1C[C@H]3[C@H](N(C)C)C(O)=C(C(N)=O)C(=O)[C@@]3(O)C(O)=C1C2=O (some centres unmarked),< 4,< 4,,,
CN(C)[C@@H]1C(O)=C(C(N)=O)C(=O)[C@@]2(O)C(O)=C3C(=O)c4c(ccc(CNCCC(F)(F)F)c4O)C[C@H]3C[C@@H]12,< 4,< 4,,,
CN(C)[C@@H]1C(O)=C(C(N)=O)C(=O)[C@@]2(O)C(O)=C3C(=O)c4c(O)ccc(C#Cc5ccc(NS(C)(=O)=O)cc5)c4C[C@H]3C[C@@H]12 [BU],,,< 4,> 4,
CCCCOCCCNCc1ccc(OC)c(-c2ccc(O)c3c2C[C@H]2C[C@H]4[C@H](N(C)C)C(O)=C(C(N)=O)C(=O)[C@@]4(O)C(O)=C2C3=O)c1 [FR],,,< 4,< 4,
CN(C)[C@@H]1C(O)=C(C(N)=O)C(=O)[C@@]2(O)C(O)=C3C(=O)c4c(O)c(CNC5CCCC5)cc(-c5ccoc5)c4C[C@H]3C[C@@H]12,< 4,> 4,,,
Cc1csc(-c2ccc(O)c3c2C[C@H]2C[C@H]4[C@H](N(C)C)C(O)=C(C(N)=O)C(=O)[C@@]4(O)C(O)=C2C3=O)c1,,,,,MIC (S. aureus RN450; [1]): < 4 µg/mL; MIC (E. coli mL308 225; [2]): < 4 µg/mL
CN(C)[C@@H]1C(O)=C(C(N)=O)C(=O)[C@@]2(O)C(O)=C3C(=O)c4c(O)ccc(Cl)c4C=C3C[C@@H]12,< 4,< 4,,,
CN(C)c1cc(NC(=S)Nc2ccc([N+](=O)[O-])cc2)c(O)c2c1C[C@H]1C[C@H]3[C@H](N(C)C)C(O)=C(C(N)=O)C(=O)[C@@]3(O)C(O)=C1C2=O [DA],,,< 4,> 4,
CCCCCC(=O)O[C@H]1[C@H]2C(=C(O)[C@]3(O)C(=O)C(C(N)=O)=C(O)[C@@H](N(C)C)[C@H]13)C(=O)c1c(O)cccc1[C@@H]2C [L],,,< 4,> 4,
CCOC(=O)CNCc1ccc(OC)c(-c2ccc(O)c3c2C[C@H]2C[C@H]4[C@H](N(C)C)C(O)=C(C(N)=O)C(=O)[C@@]4(O)C(O)=C2C3=O)c1,< 4,< 4,,,
CCCN(CCC)Cc1ccc(-c2ccc(O)c3c2C[C@H]2C[C@H]4[C@H](N(C)C)C(O)=C(C(N)=O)C(=O)[C@@]4(O)C(O)=C2C3=O)c2ccccc12,< 4,< 4,,,
C[C@H]1c2c(CN)cc(C(C)(C)C)c(O)c2C(=O)C2=C(O)[C@]3(O)C(=O)C(C(N)=O)=C(O)[C@@H](N(C)C)[C@@H]3[C@@H](O)[C@@H]21,> 4,> 4,,,
CN(C)c1cc(NC(=O)Oc2ccccc2)c(O)c2c1C[C@H]1C[C@H]3[C@H](N(C)C)C(O)=C(C(N)=O)C(=O)[C@@]3(O)C(O)=C1C2=O [DT],,,,,MIC (S. aureus RN450; read-out: Antibiotic Activity Gram +): > 4 µg/mL; MIC (E. coli mL308 225; read-out: Antibiotic Activity Gram −): > 4 µg/mL
CNCc1cc(N(C)C)c2c(c1O)C(=O)C1=C(O)[C@]3(O)C(=O)C(C(N)=O)=C(O)[C@@H](N(C)C)[C@@H]3C[C@@H]1C2,< 4,> 4,,,
CO/N=C/c1cc(-c2ccc(O)c3c2C[C@H]2C[C@H]4[C@H](N(C)C)C(O)=C(C(N)=O)C(=O)[C@@]4(O)C(O)=C2C3=O)ccc1OC [HV],,,< 4,> 4,
CN(C)C1C(O)=C(C(N)=O)C(=O)[C@@]2(O)C(O)=C3C(=O)c4c(O)ccc(-c5ccc(CN6CCCC6)cc5)c4C[C@H]3C[C@@H]12 (some centres unmarked) [BT],,,< 4,< 4,
CN(C)c1cc(CNc2ccccn2)c(O)c2c1C[C@H]1C[C@H]3[C@H](N(C)C)C(O)=C(C(N)=O)C(=O)[C@@]3(O)C(O)=C1C2=O,< 4,> 4,,,
CN(C)c1cc(CNCC(C)(C)C)c(O)c2c1C[C@H]1C[C@H]3[C@H](N(C)C)C(O)=C(C(N)=O)C(=O)[C@@]3(O)C(O)=C1C2=O [drawing 3433],< 4,> 4,,,
